Measured values taken from patent US20120015925A1, “NOVEL BENZOTHIAZEPINE AND BENZOTHIEPINE COMPOUNDS” (ASAHI KASEI PHARMA CORPORATION, priority 2004, published 2012).

Key:
Caco-2 cell = assay: Gastrointestinal toxicity: cytotoxicity against Caco-2 cell (LDH activity); assay type: cell-based, human; settings: for CELL TOXICITY AGAINST Caco2 3 μM / CELL TOXICITY AGAINST Caco2 10 μM / CELL TOXICITY AGAINST Caco2 30 μM: 2 hours, LDH activity in medium relative to cell lysis agent = 100%
Protocol: That is, 10,000 cells/well of Caco-2 cells (purchased from ATCC) were seeded in a 96-well plate [MEM-E medium, 10% FBS (Fetal Bovine Serum), 1% NEAA (Non Essential Amino Acid) solution, supplied from Gibco]. After culturing for 48 hours, the test compound diluted with the medium was added to each well. After 2 hours, 50 μL of the medium was collected, and an LDH activity in the medium was measured using an LDH activity measurement kit (CytoTox96 Non-Radioactive Cytotoxicity Assay, supplied from Promega). Defining the LDH activity of the Caco-2 cells treated with a cell lysis agent as being 100%, the relative activity was calculated as a index of the cytotoxicity.

human IBAT = molecular target: T1, human IBAT (Homo sapiens, UniProt Q12908); assay: In vitro assay using Cos 7 cells, transiently expressed human IBAT; assay type: cell-based; settings: [3H]-taurocholate 8 μM uptake, 37° C., 60 minutes
T1 sequence (Q12908 1-348): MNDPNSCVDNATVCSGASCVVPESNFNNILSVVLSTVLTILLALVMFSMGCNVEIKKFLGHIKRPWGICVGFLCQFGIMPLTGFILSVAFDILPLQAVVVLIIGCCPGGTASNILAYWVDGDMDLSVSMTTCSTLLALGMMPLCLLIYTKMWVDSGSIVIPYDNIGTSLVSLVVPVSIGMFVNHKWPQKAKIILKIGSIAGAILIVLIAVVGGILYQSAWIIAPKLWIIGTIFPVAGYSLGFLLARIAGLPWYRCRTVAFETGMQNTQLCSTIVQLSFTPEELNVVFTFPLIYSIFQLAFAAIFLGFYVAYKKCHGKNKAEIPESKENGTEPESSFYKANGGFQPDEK
Protocol: In the present Test Example, an in vitro assay of compounds using Cos 7 cells as to inhibitory activity on transiently expressed human IBAT or rat IBAT transporter was performed according to the method described in Am. J. Physiol., 274, G157-169.
That is, […] cells/well of Cos 7 cells were seeded in a 24-well plate, and after one day, the cells were transfected with 0.3 μg/well of cDNA of human IBAT or rat IBAT using FuGENE6 (supplied from Roche). After culturing for one day after the transfection, the cells were washed once with the assay buffer, i.e., Hanks buffer containing 25 mM glucose and 10 mM HEPES (pH 7.4). The assay buffer was then replaced with the assay buffer containing the test compound. [^3H]-Taurocholate at a final concentration of 8 μM was added thereto and incubated at 37° C. for 60 minutes so that [^3H]-taurocholate was taken into Cos 7 cells by the action of human IBAT or rat IBAT. The cells were washed twice with the assay buffer containing 1 mM taurocholate, and subsequently lysed with 0.2 M NaOH to stop the reaction. The cell lysate was added to 4 mL of liquid scintillation cocktail, which was then thoroughly vortexed. Then the radioactivity was measured using the liquid scintillation counter.

| Structure (SMILES) | CELL TOXICITY AGAINST Caco2 3 μM (Caco-2 cell) [%] | CELL TOXICITY AGAINST Caco2 10 μM (Caco-2 cell) [%] | CELL TOXICITY AGAINST Caco2 30 μM (Caco-2 cell) [%] | cytotoxicity to the Caco-2 cell (Caco-2 cell; LDH activity in medium after 2 hours) | IC50 (human IBAT) [nM] |
| --- | --- | --- | --- | --- | --- |
| CCCCCC1(CCCCC)CS(=O)(=O)c2ccc(N(C)C)cc2C(c2cccc(NC(=S)Nc3ccc(C[N+]45CCC(CC4)CC5)cc3)c2)N1.[Br-] (racemic) [EXAMPLE 5735] | <1 | <1 | <1 | – | – |
| CCCCCC1(CCCCC)CS(=O)(=O)c2ccc(N(C)C)cc2C(c2cccc(NC(=S)Nc3ccc(CC[N+](C)(C)Cc4ccccc4)cc3)c2)N1.[Br-] (racemic) [EXAMPLE 5856] | <1 | <1 | <1 | – | – |
| CCCCCC1(CCCCC)CS(=O)(=O)c2ccc(N(C)C)cc2C(c2cccc(NC(=S)Nc3ccc(CC[N+]45CCC(CC4)CC5)cc3)c2)N1.[Br-] (racemic) [EXAMPLE 5857] | <1 | <1 | <1 | – | – |
| CCCCC1(CCCC)CS(=O)(=O)c2ccc(N(C)C)cc2C(c2ccc(OCc3ccc(C[N+]45CCN(CC4)CC5)cc3)cc2)N1.[Cl-] (stereo not shown) [Comparative Example, 1-{4-[4-(3,3-dibutyl-7-dimethylamino-1,1-dioxo-2,3,4,5-tetrahydro-1,4-benzothiazepine-5-yl)phenoxymethyl]benzyl}-4-aza-1-azoniabicyclo[2.2.2]octane chloride, reference compound] | – | – | – | exhibited the cytotoxicity to the small intestine epithelial cell line at low concentrations | – |
| CCCCC1(CCCC)CS(=O)(=O)c2ccc(N(C)C)cc2C(c2cccc(NC(=S)Nc3ccc(C[N+]45CCN(CC4)CC5)cc3)c2)N1.[Br-] (stereo not shown) [EXAMPLE 3705] | <1 | <1 | <1 | – | 54 |
| CCCCC1(CCCC)CS(=O)(=O)c2ccc(N(C)C)cc2C(c2cccc(NC(=S)Nc3ccc(C[n+]4ccc(C)cc4)cc3)c2)N1.[Br-] (stereo not shown) [EXAMPLE 3709] | <1 | <1 | <1 | – | 49 |
| CCCCc1ccc[n+](Cc2ccc(NC(=S)Nc3cccc(C4NC(CCCC)(CCCC)CS(=O)(=O)c5ccc(N(C)C)cc54)c3)cc2)c1.[Br-] (stereo not shown) [EXAMPLE 3723] | <1 | <1 | <1 | – | 25 |
| CCCCCC1(CCCCC)CS(=O)(=O)c2ccc(N(C)C)cc2C(c2cccc(NC(=S)Nc3ccc(C[N+](C)(C)Cc4ccccc4)cc3)c2)N1.[Br-] (stereo not shown) [EXAMPLE 5480] | <1 | <1 | <1 | – | – |
| CCCCC1(CCCC)CS(=O)(=O)c2ccc(N(C)C)cc2C(c2cccc(NC(=S)Nc3ccc(C[N+]45CCC(c6ccccc6)(CC4)CC5)cc3C)c2)N1.[Br-] (stereo not shown) [EXAMPLE P340] | – | <1 | <1 | – | 28 |
| CCCCC1(CCCC)CS(=O)(=O)c2ccc(N(C)C)cc2C(c2cccc(NC(=S)Nc3ccc(C[N+]45CCC(c6ccccc6)(CC4)CC5)cc3Cl)c2)N1.[Br-] (stereo not shown) [EXAMPLE P344] | – | <1 | <1 | – | 19 |
| CCCCC1(CCCC)CS(=O)(=O)c2ccc(N(C)C)cc2C(c2cccc(NC(=S)Nc3ccc(C[N+]45CCC(c6ccccc6)(CC4)CC5)c(Cl)c3)c2)N1.[Br-] (stereo not shown) [EXAMPLE P345] | – | <1 | <1 | – | 23 |
| CCCCC1(CCCC)CS(=O)(=O)c2ccc(N(C)C)cc2C(c2cccc(NC(=S)Nc3ccc(C[N+]45CCC(c6ccccc6)(CC4)CC5)c(Br)c3)c2)N1.[Br-] (stereo not shown) [EXAMPLE P347] | – | <1 | <1 | – | 24 |
| CCCCC1(CCCC)CS(=O)(=O)c2ccc(N(C)C)cc2C(c2cccc(NC(=S)Nc3ccc(C[N+]45CCC(c6ccccc6)(CC4)CC5)c(C(F)(F)F)c3)c2)N1.[Br-] (stereo not shown) [EXAMPLE P348] | – | <1 | <1 | – | 22 |
